SMILES strings stand for the structures.

Common to all, as to format: in vivo, Male Wistar rats
In assay [1] the test system is rats given Gp120 (Gp120 model). Briefly: Gp120 model: sound avoidance conditioning (pole climbing test). The following applies: for percentage of avoidance, Day 0 / percentage of avoidance, Day 1 / percentage of avoidance, Day 2 / percentage of avoidance, Day 3 / percentage of avoidance, Day 4: Gp120 10 nM/kg/day for 5 days; for percentage of avoidance, Day 0 / percentage of avoidance, Day 1 / percentage of avoidance, Day 2 / percentage of avoidance, Day 3 / percentage of avoidance, Day 4 / AUC (average area under the learning curve per day): treatment 10 mg/kg/day for 5 days; for percentage of avoidance, Day 0: learning Day 0; for percentage of avoidance, Day 1: learning Day 1; for percentage of avoidance, Day 2: learning Day 2; for percentage of avoidance, Day 3: learning Day 3; for percentage of avoidance, Day 4: learning Day 4; for effect on learning parameters (in words) / AUC (average area under the learning curve per day): Gp120 model; for AUC (average area under the learning curve per day): maximum value 100. The text has this: 40 rats were slightly anesthetized by ether, an incision was made into the skin of the skull, and the skull was pierced by means of a dental burr. A metal needle was stereotaxically directed to the lateral ventricle, and then fixed by means of dental cement. Every day of the experiment, the patency of the needle was controlled.
Three days after introducing the needle (recovery from the postoperative shock) the non-anesthetized animals were divided into 2 groups: • one group of 10 rats to which 5 μl of physiological serum was injected • one group of 30 rats to which 5 μl of physiological serum containing Gp120 in an amount of 10 nM/kg was injected
This administration was repeated every day for a period of five days.
Ten days after the last administration of Gp120, the thirty rats were randomly divided into three groups of 10 animals each: • (i) one group of 10 rats received 1 ml/kg/day of normal saline (controls) for a period of 5 days. • (ii) one group of 10 rats received 10 mg/kg/day of Cinnamoyl-Gly-L-Phe-L-PrONH2 dissolved in normal saline for a period of 5 days. • (iii) one group of 10 rats received 10 mg/kg/day of tacrine peros for a period of 5 days
(§1) During the last five days of treatment, the rats were placed under the common learning conditions of the three models between 10.00 a.m. and 11.00 a.m. (see below).
(§2) During the last five days of treatment, at 10.00 a.m. (1 hour after the administration of Cinnamoyl-Gly-Phe-PrONH2), the animals were placed into a learning cage for sound avoidance conditioning (Conditioning avoidance response). The animals learned to climb a pole first to escape from and then to avoid an electric shock. This method was standardized and quantified. (see Le Poncin M., Lafitte J. C., Rapin J. R., Sound Avoidance Conditioning and a Mathematical approach to the description of acquisition performance, Math. Biosciences 59 (1982) 242-268).
(§3) For a period of five days, the animals were placed everyday under these learning conditions for a total of ten tests a day. Results are expressed as percentage of adequate responses, and the kinetics of the responses is represented by a multi-exponential maximum curve.
(§4) The curve maximum represents the learning capacities. The slope of the curve evaluates the learning speed. The area under the curve (AUC) represents a good evaluation of all conditioning parameters. The maximum value of the area under the curve is 500, if the animals show 100% adequate responses as early as Day 0. In fact, an average area under the curve is calculated per day, what amounts to a maximum value of 100. In the absolute control animals, this average area under the curve is equal to 40+/−4.

For assay [2], the system named is rats given dexamethasone (dexamethasone model). As to the kind of experiment: Dexamethasone model: sound avoidance conditioning. The settings on record: for percentage of avoidance, Day 0 / percentage of avoidance, Day 1 / percentage of avoidance, Day 2 / percentage of avoidance, Day 3 / percentage of avoidance, Day 4: dexamethasone 50 mg/kg/day; for percentage of avoidance, Day 0: learning Day 0; for percentage of avoidance, Day 1: learning Day 1; for percentage of avoidance, Day 2: learning Day 2; for percentage of avoidance, Day 3: learning Day 3; for percentage of avoidance, Day 4: learning Day 4; for effect on learning capacity (in words) / AUC (average area under the learning curve per day): dexamethasone model; for AUC (average area under the learning curve per day): maximum value 100. On the procedure:
(§5) 40 rats were kept and operated as described above. Then, they were divided into the following groups: • one group of 10 rats which received 5 μl/day of physiological serum • one group of 30 rats which received 50 mg/kg/day dexamethasone, dissolved in physiological serum.
as §1, §2, §3, §4

Another assay concerns hippocampal neurons. Briefly: Gp120 model: neuronal count in the CA III layers of the hippocampus. The following applies: percentage of the control group, treatment 10 mg/kg/day for 5 days.
For assay [3], the system named is glucocorticoid receptors of the hippocampus. Briefly: Dexamethasone model: determination of the corticoide receptors in the hippocampus (3H-dexamethasone binding). The following applies: for Type I receptors in Femtomol/mg protein: dexamethasone 50 mg/kg/day, hippocampi removed after the last learning session; for effect on number of receptors of hippocampus neurons (in words): dexamethasone model. On the procedure: as §5
After the last learning session at 10.00 a.m., the rats were sacrificed by means of decapitation, and the hippocampi were quickly removed and put on a plate cooled to 0° C. The number of glucocorticoid receptors was determined by a binding method using a labeled corticoid and a specific inhibitor to the binding of the corticoid to the receptor (here a total agonist). The protein content was measured by Lowry's method.
The hippocampi of each rat were homogenized in 2 ml of sodium EDTA Glycerol molybdate buffer. The homogenate was centrifugated at 100.000 g for 60 minutes. An aliquot of the supernatant was diluted in distilled water, and the protein content was measured by Lowry's method.
The rest of the supernatant was divided into three parts of 0.2 ml each. Increasing concentrations (25, 50 and 75 nmoles/ml) of dexamethasone 3H (Amersham 50 Ci/mM) were added to these parts. Three other preparations were carried out under the same conditions, while a saturating quantity of a total […] of the receptors (RU 28362) was added to obtain a non-specific binding of the labeled dexamethasone.
After one night of incubation at 4° C., charcoal/dextran was added to absorb […] dexamethasone. After centrifugation, the radioactivity of the supernatant was measured by liquid scintillation.
The radioactive quantities of the dexamethasone bound to the protein content are recorded. Results are expressed in femtomoles of the labeled corticoid bound to the receptor per mg of proteins.

In assay [4] the test system is rats given vincristine (vincristine model). Briefly: Vincristine model: sound avoidance conditioning. The following applies: for percentage of avoidance, Day 0 / percentage of avoidance, Day 1 / percentage of avoidance, Day 2 / percentage of avoidance, Day 3 / percentage of avoidance, Day 4: vincristine 5 μg/kg/day for 5 days; for percentage of avoidance, Day 0: learning Day 0; for percentage of avoidance, Day 1: learning Day 1; for percentage of avoidance, Day 2: learning Day 2; for percentage of avoidance, Day 3: learning Day 3; for percentage of avoidance, Day 4: learning Day 4; for AUC pro Tag: average area under the learning curve per day, maximum value 100. On the procedure: Rats were kept and treated as described above in 3. Then they were divided into the following groups: • one group of 10 rats which received 5 μl/day of physiological serum over a period of 5 days • one group of 30 rats which received 5 μl/day of physiological serum containing 5 μg/kg vincristine over a period of 5 days
A dosage of 5 μg/kg/day causes a 40 to 60% loss of the hippocampal arborization.
After the last administration, the second group of 30 rats was divided at random into three sub-groups and treated as described above in 3.
as §2, §3, §4

For another assay, the system named is hippocampal arborization. As to the kind of experiment: Vincristine model: loss of the hippocampal arborization. The settings on record: vincristine 5 μg/kg/day. How it is done:
Vincristine is an anticarcinogen that is used as a synchronizing agent. This molecule binds to the spindle of microtubules, thus blocking the cellular multiplication during the metaphase. It is a spindle poison. […] Vincristine binds to these neurofibrils thus causing peripheral neural conduction disorders in patients who are treated for neoplasm. These effects mainly affect the white matter of the axons. […] The repeated ICV administration of vincristine causes a degeneration of the conduction pathways with the appearance of abnormal neurofibrils similar to those observed in Alzheimer's disease. This degeneration mainly affects the periventricular structures. The hippocampi are affected through a decrease of their ramifications, while the cell bodies of the neurons are not altered. […] After this period, a protective layer forms on the glia cells that prevent the diffusion of vincristine from the CSF to the neighboring nerve cells. There is no spontaneously developing Alzheimer's disease in rats that would show the different types of degenerative lesions (beta-amyloid plaques, neurofibrillary and vacuolar degeneration). ICV administration of vincristine, which may cause neurofibrillary degeneration, may be used as a partial animal model of this disease. […]

Protocol for hippocampal neurons: After the last learning session, the rats were sacrificed by means of decapitation, and the brain was isolated and frozen to −80° C. with liquid nitrogen. Cuts of a thickness of 50 μm were obtained in a “cryo-cut”, and the neurons are counted in the CA III layers of the hippocampus under a microscope. The results are expressed as percentage of the control group.

As to `NC(=O)[C@@H]1CCCN1C(=O)[C@H](Cc1ccccc1)NC(=O)CNC(=O)C=Cc1ccccc1` [tripeptide derivative, cinnamoyl-glycyl-L-phenylalanyl-L-prolineamide], in assay [1], the “percentage of avoidance, Day 0” value is reported as 0%; the “percentage of avoidance, Day 1” value is recorded as 5 +/− 2%; the “percentage of avoidance, Day 2” value was “**18 +/− 2%”; the “percentage of avoidance, Day 3” value is on record as “**32 +/− 2%”. In addition, in assay [1], the “percentage of avoidance, Day 4” value is given as “**43 +/− 3%”; the “effect on learning parameters (in words)” value is “improvement of the learning capacities”; the “AUC (average area under the learning curve per day)” value was “**19.6 +/− 1.8”. Moreover, the “effect on learning parameters (in words)” value in assay [1] (listed as Cinnamoyl-Gly-Phe-ProNH2) is listed as “partly restores the learning parameters”. Besides, in assay [2], the “percentage of avoidance, Day 0” value is listed as 0%; the “percentage of avoidance, Day 1” value is 8 +/− 3%; the “percentage of avoidance, Day 2” value was “**28 +/− 3%”; the “percentage of avoidance, Day 3” value is listed as “**68 +/− 3%”. In assay [2], the “percentage of avoidance, Day 4” value is given as “**77 +/− 3%”; the “effect on learning capacity (in words)” value is reported as “considerably restores the learning capacity”; the “AUC (average area under the learning curve per day)” value was “**36.2 +/− 1.2”. The “Percentage of hippocampal neurons” value in the assay with hippocampal neurons is given as “*54 ± 3%”. Besides, in assay [3], the “Type I receptors in Femtomol/mg protein” value is “**85 ± 9 Femtomol/mg protein” and the “effect on number of receptors of hippocampus neurons (in words)” value is listed as “significant increase of the number of receptors”. Further, in assay [4], the “percentage of avoidance, Day 0” value is reported as 0%; the “percentage of avoidance, Day 1” value is given as 5 +/− 2%; the “percentage of avoidance, Day 2” value is given as “**20 +/− 2%”; the “percentage of avoidance, Day 3” value is given as “**45 +/− 3%”. Further, in assay [4], the “percentage of avoidance, Day 4” value is on record as “**53 +/− 3%”. Also, in assay [4] (vincristine model), the “AUC pro Tag” value is “**24.6 +/− 1.0”.
In the case of `CC[C@]1(O)C[C@H]2CN(CCc3c([nH]c4ccccc34)[C@@](C(=O)OC)(c3cc4c(cc3OC)N(C=O)[C@H]3[C@@](O)(C(=O)OC)[C@H](OC(C)=O)[C@]5(CC)C=CCN6CC[C@]43[C@@H]65)C2)C1` [vincristine], the “loss of the hippocampal arborization” value in the assay with hippocampal arborization is 40 to 60%.
For the compound `C[C@@H]1C[C@H]2[C@@H]3CCC4=CC(=O)C=C[C@]4(C)[C@@]3(F)[C@@H](O)C[C@]2(C)[C@@]1(O)C(=O)CO` [dexamethasone], the “decrease in the number of corticoide receptors in the hippocampus” value in assay [3] (dexamethasone, dosage and treatment time of this experiment) is given as roughly 60%.
For the compound `Nc1c2c(nc3ccccc13)CCCC2` [tacrine], in assay [1], the “percentage of avoidance, Day 0” value is listed as 0%; the “percentage of avoidance, Day 1” value was 5 +/− 2%; the “percentage of avoidance, Day 2” value was “**18 +/− 2%”; the “percentage of avoidance, Day 3” value is listed as “**31 +/− 3%”. In addition, in assay [1], the “percentage of avoidance, Day 4” value was “**42 +/− 4%”; the “effect on learning parameters (in words)” value was “partly restores the learning parameters”; the “AUC (average area under the learning curve per day)” value is listed as 19.4 +/− 2.2. Further, in assay [2], the “percentage of avoidance, Day 0” value is on record as 0%; the “percentage of avoidance, Day 1” value was 5 +/− 2%; the “percentage of avoidance, Day 2” value was 15 +/− 3%; the “percentage of avoidance, Day 3” value is on record as 42 +/− 4%. Further, in assay [2], the “percentage of avoidance, Day 4” value was 52 +/− 4%; the “effect on learning capacity (in words)” value is on record as “does not show any effect”; the “AUC (average area under the learning curve per day)” value was 22.8 +/− 1.3. Further, the “Percentage of hippocampal neurons” value with hippocampal neurons worked out at 45 ± 3%. In assay [3], the “Type I receptors in Femtomol/mg protein” value was 46 ± 5 Femtomol/mg protein and the “effect on number of receptors of hippocampus neurons (in words)” value is given as “does not show any effect”. Further, in assay [4], the “percentage of avoidance, Day 0” value was found to be 0%; the “percentage of avoidance, Day 1” value was 2 +/− 1%; the “percentage of avoidance, Day 2” value was 7 +/− 2%; the “percentage of avoidance, Day 3” value is 19 +/− 2%. In assay [4], the “percentage of avoidance, Day 4” value is on record as 28 +/− 3%. In assay [4] (vincristine model), the “effect on learning capacities (in words)” value is given as “does not show an effect” and the “AUC pro Tag” value is given as 11.2 +/− 0.8.

These data come from US20050192228A1, “Tripeptide derivatives for the treatment of neurodegenerative diseases” (priority 2001, published 2005).
